# Laboratory results: ChEMBL document CHEMBL3817755, “Design, synthesis and biological evaluation of indazolepyrimidine based derivatives as anticancer agents with anti-angiogenic and antiproliferative activities” (Medchemcomm, 2016)
# Legend:
# Type in all cases: functional
# CCRF-CEM = assay: Growth inhibition of human CCRF-CEM cells at 10 uM after 48 hrs by SRB assay; conditions: read-out: GI
# [1] = Growth inhibition of human HL-60(TB) cells at 10 uM after 48 hrs by SRB assay; conditions: HL-60, 48 h, read-out: GI
# K562 = assay: Growth inhibition of human K562 cells at 10 uM after 48 hrs by SRB assay; conditions: K562, 48 h, read-out: GI
# SR = assay: Growth inhibition of human SR cells at 10 uM after 48 hrs by SRB assay; conditions: read-out: GI
# A549 = assay: Growth inhibition of human A549/ATCC cells at 10 uM after 48 hrs by SRB assay; conditions: A549, 48 h, read-out: GI
# EKVX = assay: Growth inhibition of human EKVX cells at 10 uM after 48 hrs by SRB assay; conditions: read-out: GI
# [2] = Growth inhibition of human HOP92 cells at 10 uM after 48 hrs by SRB assay; conditions: HOP-92, 48 h, read-out: GI
# NCI-H322M = assay: Growth inhibition of human NCI-H322M cells at 10 uM after 48 hrs by SRB assay; conditions: read-out: GI
# NCI-H460 = assay: Growth inhibition of human NCI-H460 cells at 10 uM after 48 hrs by SRB assay; conditions: NCI-H460, 48 h, read-out: GI
# NCI-H522 = assay: Growth inhibition of human NCI-H522 cells at 10 uM after 48 hrs by SRB assay; conditions: NCI-H522, 48 h, read-out: GI
# [3] = Growth inhibition of human COLO205 cells at 10 uM after 48 hrs by SRB assay; conditions: COLO 205, 48 h, read-out: GI
# [4] = Growth inhibition of human HCT116 cells at 10 uM after 48 hrs by SRB assay; conditions: HCT-116, 48 h, read-out: GI
# HT-29 = assay: Growth inhibition of human HT-29 cells at 10 uM after 48 hrs by SRB assay; conditions: HT-29, 48 h, read-out: GI
# KM12 = assay: Growth inhibition of human KM12 cells at 10 uM after 48 hrs by SRB assay; conditions: KM12, 48 h, read-out: GI
# [5] = Growth inhibition of human SF295 cells at 10 uM after 48 hrs by SRB assay; conditions: SF-295, 48 h, read-out: GI
# [6] = Growth inhibition of human SNB19 cells at 10 uM after 48 hrs by SRB assay; conditions: SNB-19, 48 h, read-out: GI
# U-251 = assay: Growth inhibition of human U251 cells at 10 uM after 48 hrs by SRB assay; conditions: U-251, 48 h, read-out: GI
# [7] = Growth inhibition of human LOXIMVI cells at 10 uM after 48 hrs by SRB assay; conditions: LOX IMVI, read-out: GI
# Malme-3M = assay: Growth inhibition of human MALME-3M cells at 10 uM after 48 hrs by SRB assay; conditions: read-out: GI
# M14 = assay: Growth inhibition of human M14 cells at 10 uM after 48 hrs by SRB assay; conditions: M14, 48 h, read-out: GI
# MDA-MB-435 = assay: Growth inhibition of human MDA-MB-435 cells at 10 uM after 48 hrs by SRB assay; conditions: MDA-MB-435, 48 h, read-out: GI
# SK-MEL-2 = assay: Growth inhibition of human SK-MEL-2 cells at 10 uM after 48 hrs by SRB assay; conditions: SK-MEL-2, 48 h, read-out: GI
# SK-MEL-5 = assay: Growth inhibition of human SK-MEL-5 cells at 10 uM after 48 hrs by SRB assay; conditions: SK-MEL-5, 48 h, read-out: GI
# [8] = Growth inhibition of human UACC62 cells at 10 uM after 48 hrs by SRB assay; conditions: UACC-62, 48 h, read-out: GI
# [9] = Growth inhibition of human IGROV1 cells at 10 uM after 48 hrs by SRB assay; conditions: IGROV-1, 48 h, read-out: GI
# [10] = Growth inhibition of human OVCAR3 cells at 10 uM after 48 hrs by SRB assay; conditions: OVCAR-3, 48 h, read-out: GI
# [11] = Growth inhibition of human OVCAR4 cells at 10 uM after 48 hrs by SRB assay; conditions: OVCAR-4, 48 h, read-out: GI
# [12] = Growth inhibition of human OVCAR5 cells at 10 uM after 48 hrs by SRB assay; conditions: OVCAR-5, 48 h, read-out: GI
# [13] = Growth inhibition of human NCI-ADR-RES cells at 10 uM after 48 hrs by SRB assay; conditions: read-out: GI
# [14] = Growth inhibition of human SKOV3 cells at 10 uM after 48 hrs by SRB assay; conditions: SK-OV-3, 48 h, read-out: GI
# 786-0 = assay: Growth inhibition of human 786-0 cells at 10 uM after 48 hrs by SRB assay; conditions: 786-0, 48 h, read-out: GI
# [15] = Growth inhibition of human Caki1 cells at 10 uM after 48 hrs by SRB assay; conditions: CAKI-1, 48 h, read-out: GI
# [16] = Growth inhibition of human RXF393 cells at 10 uM after 48 hrs by SRB assay; conditions: RXF 393, 48 h, read-out: GI
# SN12C = assay: Growth inhibition of human SN12C cells at 10 uM after 48 hrs by SRB assay; conditions: read-out: GI
# [17] = Growth inhibition of human TK10 cells at 10 uM after 48 hrs by SRB assay; conditions: TK-10, 48 h, read-out: GI
# [18] = Growth inhibition of human PC3 cells at 10 uM after 48 hrs by SRB assay; conditions: PC-3, 48 h, read-out: GI
# [19] = Growth inhibition of human DU145 cells at 10 uM after 48 hrs by SRB assay; conditions: DU-145, 48 h, read-out: GI
# MCF7 = assay: Growth inhibition of human MCF7 cells at 10 uM after 48 hrs by SRB assay; conditions: MCF7, 48 h, read-out: GI
# MDA-MB-231 = assay: Growth inhibition of human MDA-MB-231 cells at 10 uM after 48 hrs by SRB assay; conditions: MDA-MB-231, 48 h, read-out: GI
# [20] = Growth inhibition of human Hs 578T cells at 10 uM after 48 hrs by SRB assay; conditions: read-out: GI
# [21] = Growth inhibition of human BT549 cells at 10 uM after 48 hrs by SRB assay; conditions: BT-549, 48 h, read-out: GI
# T47D = assay: Growth inhibition of human T47D cells at 10 uM after 48 hrs by SRB assay; conditions: read-out: GI
# MDA-MB-468 = assay: Growth inhibition of human MDA-MB-468 cells at 10 uM after 48 hrs by SRB assay; conditions: MDA-MB-468, 48 h, read-out: GI
compound,measurement,setting,value
COc1ccc(Nc2nccc(Nc3ccc4[nH]ncc4c3)n2)cc1,inhibition of growth at 10 µM,CCRF-CEM,102%
same,inhibition of growth at 10 µM,[1],40%
same,inhibition of growth at 10 µM,K562,95%
same,inhibition of growth at 10 µM,SR,96%
same,inhibition of growth at 10 µM,A549,76%
same,inhibition of growth at 10 µM,EKVX,49%
same,inhibition of growth at 10 µM,[2],101%
same,inhibition of growth at 10 µM,NCI-H322M,37%
same,inhibition of growth at 10 µM,NCI-H460,75%
same,inhibition of growth at 10 µM,NCI-H522,81%
same,inhibition of growth at 10 µM,[3],74%
same,inhibition of growth at 10 µM,[4],81%
same,inhibition of growth at 10 µM,HT-29,88%
same,inhibition of growth at 10 µM,KM12,90%
same,inhibition of growth at 10 µM,[5],52%
same,inhibition of growth at 10 µM,[6],40%
same,inhibition of growth at 10 µM,U-251,64%
same,inhibition of growth at 10 µM,[7],81%
same,inhibition of growth at 10 µM,Malme-3M,24%
same,inhibition of growth at 10 µM,M14,67%
same,inhibition of growth at 10 µM,MDA-MB-435,65%
same,inhibition of growth at 10 µM,SK-MEL-2,70%
same,inhibition of growth at 10 µM,SK-MEL-5,98%
same,inhibition of growth at 10 µM,[8],61%
same,inhibition of growth at 10 µM,[9],49%
same,inhibition of growth at 10 µM,[10],51%
same,inhibition of growth at 10 µM,[11],67%
same,inhibition of growth at 10 µM,[12],48%
same,inhibition of growth at 10 µM,[13],82%
same,inhibition of growth at 10 µM,[14],48%
same,inhibition of growth at 10 µM,786-0,56%
same,inhibition of growth at 10 µM,[15],62%
same,inhibition of growth at 10 µM,[16],68%
same,inhibition of growth at 10 µM,SN12C,57%
same,inhibition of growth at 10 µM,[17],81%
same,inhibition of growth at 10 µM,[18],87%
same,inhibition of growth at 10 µM,[19],68%
same,inhibition of growth at 10 µM,MCF7,87%
same,inhibition of growth at 10 µM,MDA-MB-231,51%
same,inhibition of growth at 10 µM,[20],53%
same,inhibition of growth at 10 µM,[21],56%
same,inhibition of growth at 10 µM,T47D,104%
same,inhibition of growth at 10 µM,MDA-MB-468,56%
